Where two headings read alike, the source gives them in different places.
What was measured:
dsDNA = assay: SPR binding to dsDNA; settings: up to 5 μM compound injection
MYCN G4 DNA [1] = assay: Surface plasmon resonance (SPR) with immobilized biotinylated MYCN G4 DNA; format: binding, human
Method: Surface plasmon resonance (SPR) analysis. The SPR binding assays were performed with a BIAcore 3000 (GE Healthcare) instrument. A CM5 SPR biochip was loaded into the system and primed with running buffer (10 mM Tris, pH7.0, 100 mM KCl, 0.005% Tween 20, 5% DMSO) with a flow rate of 5 μL/min. Then both Flow Cell (Fc) 1 and 2 were activated by EDC/NHS (0.4 M/0.1 M) aqueous solution for 15 min, followed with an injection of streptavidin (SA) solution (0.2 mg/mL in 10 mM sodium acetate buffer, pH4.5) for 30 minutes. After the immobilization amount of SA reached 8,000-10,000 RU, the surface was deactivated by flowing 1 M Ethanolamine aqueous solution (pH 8.5) for 10 min and regenerated with 10 mM NaOH for 2 min to remove the unbound SA. In the meantime, biotinylated MYCN G4 DNA was prepared at 5 μM in the annealing buffer and heated up to 95° C. for 5 min and slowly cooled down. After annealing, a total of 150 μL solution was injected in the Fc 2 of SPR system for 30 min to immobilize DNA onto the chip surface. The small molecule solutions were tested once the baseline was stable.
To detect the binding signal as well as the binding affinity, a higher flowing rate (25 μL/min) was used in both Fc 1 (reference) and Fc 2 (DNA). Each of the compound solution was prepared at 20× designed the concentrations in DMSO, and then diluted into non-DMSO running buffer, resulting in a final concentration of 5% DMSO. Then, a total of 50 μL compound solution was injected in Fc 1-2 flow path for 120 s for association, followed with 200 s running of buffer for dissociation. An injection of 50 μL regeneration buffer (1 M KCl) could be performed between two samples if necessary. The final binding curve was obtained by reference subtraction. To determine the binding affinity (KD), a series of diluted compound solutions were injected and KD was calculated by BIAevaluation 4.0 software (GE Healthcare) using Langmuir 1:1 binding model.
In this example, SPR binding assays were performed to analyze binding activity of representative bivalent compounds of the present disclosure. The compounds of this example included a non-canonical binder component and a G4 stacker component. A BIAcore 3000 (GE Healthcare) instrument was used. A CM5 SPR biochip was used and primed with running buffer (10 mM Tris, pH7.0, 100 mM KCl, 0.005% Tween 20, 5% DMSO). To immobilize the compounds onto the chip surface, the flow rate was set as 5 μL/min. Then the carboxylated dextran on the chip surface was activated by EDC/NHS (0.4 M/0.1 M) aqueous solution for 15 min, followed with an injection of streptavidin (SA) solution (0.2 mg/mL in 10 mM sodium acetate buffer, pH 4.5) for 30 minutes. After the immobilization amount of SA, the surface was quenched by injecting 1 M ethanolamine (EA) aqueous solution (pH 8.5) for 10 min and regenerated with 10 mM NaOH for 2 min to remove the physical adsorption. Furthermore, biotinylated MYCN G4 DNA was prepared at 5 μM in the annealing buffer and heated up to 95° C. for 5 min followed with slowly cooling down to room temperature within 1 h. After annealing, a total of 150 μL solution was injected in the Fc 2 of SPR system for 30 min to immobilize DNA onto the chip surface. The compound solutions were then tested once the baseline was stable.
To detect the binding signal as well as the binding affinity, a higher flowing rate (25 μL/min) was used in both Fc 1 (blank) and Fc 2 (target). Each of the compound solutions was prepared at 20× designed the concentrations in DMSO, and then diluted into non-DMSO running buffer, resulting in a final concentration of 5% DMSO. Then, a total of 50 μL compound solution was injected in Fc 1-2 flow path for 120 s for association, followed with 200 s running of buffer for dissociation. An injection of 50 μL regeneration buffer (1 M KCl) could be performed between two samples if necessary. The final binding curve was obtained by referencing the blank channel (Fc 1). […]

MYCN hairpin-G4 DNA = assay: FIA using compound fluorescence (Ex 340/Em 500 nm), titration with unlabeled MYCN G4 DNA; format: binding, human; settings: 100 nM compound titrated with folded unlabeled MYCN G4
Method: In this study, FIA was used for validating the bindings between certain bivalent and MYCN G4 oligos. To measure the binding affinity, a solution of each compound was prepared in triplicate in a 96 well-plate (Costar, black side clear bottom), resulting in a final concentration of 100 nM (5% final DMSO in the working solution). Unlabeled MYCN G4 DNA was folded based on the above-mentioned annealing method, then added into the well plate resulting in different concentrations by a seral dilution. The plate was incubated at room temperature for 30 min, followed by centrifuging at 500 rpm for 2 minutes. The fluorescence intensity was then quantitatively recorded by a Synergy Mx microplate reader (BioTek) at Ex 340 nm/Em 500 nm. The fluorescence intensities were then normalized, and the binding affinity was calculated by fitting the curve using one-site total model in GraphPad Prism 8.3.1 software.

MYCN G4 DNA [2] = assay: Circular dichroism (CD) thermal melting assay of MYCN G4; format: binding, human; settings: 10 mM sodium phosphate pH 7.0, 5 mM KCl, 5 μM DNA
Method: For thermal melt assay, MYCN oligonucleotides were prepared in a low KCl buffer (10 mM Tris, pH7.0, 5 mM KCl) at 5 μM concentration. To test the stabilization effect, G4 samples were incubated with and without 20 μM compound (final solution containing 5% DMSO). Then a total of 300 μL solution was added in a cuvette and heated from 20° C. to 95° C. in a CD spectrometer with an interval of 1° C. To calculate the melting temperature (Tm), the peak of CD spectrum at 263 nm was tracked, and […] vs temperature was plotted and fitted using a nonlinear sigmoidal dose-response model with a variable slope in GraphPad Prism 8 software. The shifting of melting temperature (ΔTm) was calculated using Tm (compound)−Tm (DMSO).
For CD melting assay, MYCN oligonucleotides were prepared in KCl buffer (10 mM sodium phosphate, pH7.0, 5 mM KCl) at 5 μM concentration. To test the stabilization effect of the compounds, MYCN G4 DNA samples were mixed with/without the compound (final solution containing 5% DMSO) at designed concentration. Then a total of 300 μL solution was added in a cuvette and heated from 20 to 80° C. in a CD spectrometer with an interval of 1° C. To calculate the melting temperature (Tm), the peak of CD spectrum at 263 nm was tracked, and […] vs temperature was plotted and fitted using a nonlinear sigmoidal dose-response model with a variable slope in GraphPad Prism 8 software.

[3] = Solubility / aggregation observations in binding buffers; format: physicochemical; settings: assay buffers, SPR sensorgrams
Method: A systematic binding assay between 14 analogs and MYCN G4 was performed by SPR and 2-AP (A11) fluorescence titration (FIGS. 26A-26N, 27A-27N). […] For 2-AP fluorescence titration assay (using an A11-substituted construct) observed KD values aligned well with SPR experiments, although the values were slightly lower overall. […] Taking all the SAR data into consideration, MY-8 was elected for cell-based assays.

[4] = molecular target: MYCN G4 DNA (2-AP at A11); assay: 2-Aminopurine (2-AP) fluorescence titration, A11-labeled MYCN G4; format: binding, human; settings: 2-AP at A11 of MYCN G4
Method: 2-Aminopurine (2-AP) fluorescence titration. Fluorescence titrations based on 2-aminopurine labeling were performed using the protocol reported previously. Briefly, MYCN G4 oligonucleotide with a 2-AP substitution at either A11 or A18 position was annealed by heating the sample to 95° C. for 5 min and cooling down to RT slowly. The oligonucleotide with folded structure was diluted to 10 μM in Tris buffer (10 mM Tris, pH7.0, 100 mM KCl, 0.005% Tween 20) and prepared in a black 96-well plate (Costar) in triplicate as designed. Small molecules were diluted in DMSO to obtain a series of solutions with concentrations ranging from 0.1 to 5 mM, and then diluted by 20 times added into the plate (5% DMSO final concentration). The final concentration of 2-AP DNA was 1 μM in the well plate. To obtain the background fluorescence, small molecule solutions without DNA were also prepared in the same plate. After incubation for 30 min at RT, the plate was briefly centrifuged and scanned in Synergy Mx microplate reader (BioTek) with Ex 310 nm/Em 365 nm. Fluorescence signals were calculated by averaging the intensities in triplicate wells after subtracting the references. Finally, the binding signals were normalized and the KD value was determined by fitting the curve using a nonlinear sigmoidal dose-response model with a variable slope in GraphPad Prism 8.3.1 software.

[5] = MYCN hairpin G4, SPR titration, read-out: KD by SPR

For `COc1ccc2nc3cc(Cl)ccc3c(NCCCNCCCl)c2c1` [Acridine ICR 191, reference compound], the “binding to dsDNA on SPR” value (dsDNA) was “dose-dependent binding signals”, the SPR binding kinetics (MYCN G4 DNA [1]; MYCN G4 binding curves) was “fast-on/off” and the Kd (MYCN G4 DNA [1]; [5]) was 821 ± 184 nM. For the same compound, the Kd (MYCN hairpin-G4 DNA) was 1040 ± 150 nM and the “ΔTm of MYCN G4” value (MYCN G4 DNA [2]) was 4.6 °C.

For `COc1ccc(-c2noc(-c3ccc(NCCNc4c5ccc(Cl)cc5nc5ccc(OC)cc45)nn3)n2)cc1` [B32, N1-(6-chloro-2-methoxyacridin-9-yl)-N2-(6-(3-(4-methoxyphenyl)-1,2,4-oxadiazol-5-yl)pyridazin-3-yl)ethane-1,2-diamine], the “binding to dsDNA on SPR” value (dsDNA) was “bound to dsDNA at low micromolar level”, the Kd (MYCN G4 DNA [1]; [5]) was 303 ± 32 nM and the Kd (MYCN hairpin-G4 DNA) was 311 ± 52 nM.

With `COc1ccc(-c2noc(-c3ccc(NCCCN4CCC(N5CCCCC5)CC4)nn3)n2)cc1` [MY-2] the solubility / aggregation [3] was “aggregation potential/poor solubility”, the Kd (MYCN G4 DNA [1]; MYCN G4, Langmuir 1:1 model, read-out: SPR KD) was 2600 ± 1900 nM and the “A11 2AP KD” value [4] was “sub-micromolar binders”. For the same compound, the Kd [4] was 200 ± 30 nM.

From US20240287054A1, “COMPOUNDS THAT BIND NON-CANONICAL G-QUADRUPLEX STRUCTURES AND METHODS OF MAKING AND USING THE SAME” (The U.S.A., as Represented by the Secretary, Department of …, priority 2021, published 2024)
